Earlier results on one substance are cited in patent US20110230399A1, “Methods for Treating Obesity Related Disease” (priority 2008, published 2011).

For one series, the system named is hypothalamic slices. To be noted: in vitro.
The conditions of series [1]: in vivo.

Take “NPY13-36: Neuropeptide Y fragment 13-36; full agonist at the Y2 receptor”: in the series with hypothalamic slices, the “NPY release from hypothalamic slices” value was “inhibits NPY release”. Moreover, in series [1], the “stimulation of food intake” value is listed as “does not stimulate food intake”.
